Measurements reported in patent publication US6706664B1, “Benzoxazole compounds, process for the preparation thereof and herbicides” (UBE Industries, Ltd., priority 1999, dated 2004).

Columns and labels:
Design in all cases: key: 0: normal development; 1: Less damaged; 2: Slightly damaged; 3: Moderately damaged; 4: Severely damaged; 5: All killed
common lambsquartes = experiment: Foliar spread test for upland field; type: in vivo, Chenopodium album; conditions: foliar spray 500 ppm, 3 weeks, rank vs non-treated
Procedure, shortened: (§1)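 Scoring used a 0–5 scale, where 0 meant normal development and 5 meant all plants killed, assessed 3 weeks after treatment. Plants had been grown about 2 weeks from seed in volcanic ash soil before a uniform spray at 500 ppm containing 0.5% surfactant.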

barnyardgrass [1] = experiment: Herbicidal test for paddy field; type: in vivo, Echinochloa crusgalli; conditions: paddy field pot, 500 g/ha dropwise at 1.5 leaf stage of barnyardgrass, 3 weeks, rank vs non-treated
Procedure, shortened: (§2)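 Scores run on a six-point scale from 0 for normal development to 5 for all plants killed, judged against non-treated pots. Plants were grown in Ube soil under 3 cm of standing water and treated by pipet with 500 g/ha of the compound once barnyardgrass had 1.5 leaves. Assessment followed 3 weeks in a glasshouse averaging 25° C.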

young rice plant = experiment: Herbicidal test for paddy field; type: in vivo; conditions: paddy field pot, 500 g/ha dropwise at 1.5 leaf stage of barnyardgrass, 3 weeks, rank vs non-treated
Procedure, shortened: as §2

green foxtail = experiment: Foliar spread test for upland field; type: in vivo, Setaria viridis; conditions: foliar spray 500 ppm, 3 weeks, rank vs non-treated
Procedure, shortened: as §1

livid amaranth = experiment: Foliar spread test for upland field; type: in vivo, Amaranthus lividus; conditions: foliar spray 500 ppm, 3 weeks, rank vs non-treated
Procedure, shortened: as §1

wheat = experiment: Foliar spread test for upland field; type: in vivo; conditions: foliar spray 500 ppm, 3 weeks, rank vs non-treated
Procedure, shortened: (§3)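 Post-emergence foliar spray, 500 ppm (wettable powder in water + 0.5% surfactant), on ~2-week-old plants grown in volcanic ash soil; glasshouse, avg 25° C, 3 wk; visual damage score 0–5.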

soybean = experiment: Foliar spread test for upland field; type: in vivo; conditions: foliar spray 500 ppm, 3 weeks, rank vs non-treated
Procedure, shortened: as §3

cotton = experiment: Foliar spread test for upland field; type: in vivo; conditions: foliar spray 500 ppm, 3 weeks, rank vs non-treated
Procedure, shortened: as §3

solgum = experiment: Foliar spread test for upland field; type: in vivo; conditions: foliar spray 500 ppm, 3 weeks, rank vs non-treated
Procedure, shortened: as §3

sugar beat = experiment: Foliar spread test for upland field; type: in vivo; conditions: foliar spray 500 ppm, 3 weeks, rank vs non-treated
Procedure, shortened: as §3

corn = experiment: Foliar spread test for upland field; type: in vivo; conditions: foliar spray 500 ppm, 3 weeks, rank vs non-treated
Procedure, shortened: as §3

velvetleaf = experiment: Foliar spread test for upland field; type: in vivo, Abutilon theophrasti; conditions: foliar spray 500 ppm, 3 weeks, rank vs non-treated
Procedure, shortened: as §1

annual bluegrass = experiment: Foliar spread test for upland field; type: in vivo, Poa annua; conditions: foliar spray 500 ppm, 3 weeks, rank vs non-treated
Procedure, shortened: as §1

morning glory = experiment: Foliar spread test for upland field; type: in vivo, Ipomoea spps.; conditions: foliar spray 500 ppm, 3 weeks, rank vs non-treated
Procedure, shortened: as §1

blackgrass = experiment: Foliar spread test for upland field; type: in vivo, Alopecurus aegualis; conditions: foliar spray 500 ppm, 3 weeks, rank vs non-treated
Procedure, shortened: as §1

Large crabgrass = experiment: Foliar spread test for upland field; type: in vivo, Digitaria adscendens; conditions: foliar spray 500 ppm, 3 weeks, rank vs non-treated
Procedure, shortened: as §1

flat sedge = experiment: Herbicidal test for paddy field; type: in vivo, Cyperus serotinus; conditions: paddy field pot, 500 g/ha dropwise at 1.5 leaf stage of barnyardgrass, 3 weeks, rank vs non-treated
Protocol: Wagner pots, each having an area of 1/5000 are, were packed with Ube soil (alluvial soil) and planted with seeds or tubers of young rice plant, barnyardgrass, bulrush, flat sedge and monochoria. Then, the pots were filled with water to a depth of 3 cm.
Each wettable powder of the desired compounds (I) shown in Table 1 prepared in accordance with Example 2 was diluted with water containing a surfactant (0.05%) and subjected to dropwise addition treatment by using pipet so that an effective concentration of the compound (I) in each herbicide became 500 g/ha at 1.5 leaf stage of barnyardgrass.
These plants were controlled in a glass house at an average temperature of 25° C. for 3 weeks, and then herbicidal effects thereof were investigated.
The herbicidal effects are evaluated according to the following 6 ranks as compared with non-treated district.
(0: normal development, 1: Less damaged, 2: Slightly damaged, 3: Moderately damaged, 4: Severely damaged, 5: All killed).

bulrush = experiment: Herbicidal test for paddy field; type: in vivo, Scrips juncoides; conditions: paddy field pot, 500 g/ha dropwise at 1.5 leaf stage of barnyardgrass, 3 weeks, rank vs non-treated
Procedure, shortened: as §2

monochoria = experiment: Herbicidal test for paddy field; type: in vivo, Monochoria vaginalis; conditions: paddy field pot, 500 g/ha dropwise at 1.5 leaf stage of barnyardgrass, 3 weeks, rank vs non-treated
Procedure, shortened: as §2

barnyardgrass [2] = experiment: Foliar spread test for upland field; type: in vivo, Echinochloa crusgalli; conditions: foliar spray 500 ppm, 3 weeks, rank vs non-treated
Procedure, shortened: as §1

CCCC(Oc1cccc(C#N)c1)c1nc2cc(Cl)ccc2o1 (centres unmarked) [Compound 457]
Effects Common lambsquarters (common lambsquartes): 3
Effect Barnyardgrass (barnyardgrass [1]): 4
Effect Young rice plant (young rice plant): 1
Effects Green foxtail (green foxtail): 3
Effects Livid amaranth (livid amaranth): 4
Effects Wheat (wheat): 2
Effects Soybean (soybean): 3
Effects Cotton (cotton): 3
Effects Solgum (solgum): 2
Effects Sugar beat (sugar beat): 3
Effects Corn (corn): 1
Effects Velvetleaf (velvetleaf): 3
Effects Annual bluegrass (annual bluegrass): 2
Effects Morning glory (morning glory): 3
Effects Blackgrass (blackgrass): 2
Effects Large crabgrass (Large crabgrass): 2
Effect Flat sedge (flat sedge): 4
Effect Bulrush (bulrush): 4
Effect Monochoria (monochoria): 4
Effects Barnyardgrass (barnyardgrass [2]): 2
